Test results published in patent publication US20190031613A1, “COMPOUNDS AND METHODS FOR THEIR USE IN THE TREATMENT OF MALARIA” (University of South Florida, priority 2016, published 2019).
Read-outs that look alike come from different tables or passages of the source.

Assays:
[1] = in vivo pharmacokinetics in mice (plasma, LC/MS-MS)
Description: Plasma exposure of prodrug 6e and parent compound 1b was determined following a single oral administration at 10 mg/kg and 3 mg/kg doses in 0.5% aqueous HEC (FIG. 5b).
Compounds 1b and its prodrug 6e were administered as a single dose (10 mg/kg) in 0.5% HEC using freshly prepared solution. Parent compound 1d and its prodrugs 6c and 6d were administered as a single dose of 50 mg/kg using the same vehicle. The blood was collected in prepared 5 ml syringe containing heparin via cardiac puncture and put into 15 mL conical tube on ice. Five mice were used per one time point at 0.5 h, 1 h, 2 h, 4 h, 8 h and 24 h […] plus 2 mice as a control (not-treated). The blood was then centrifuged for 5 min at 4000 rpm and plasma supernatant collected while avoiding the whole blood pellet at the bottom of the tube. The plasma was stored at −80° C. until the day of LC/MS-MS analysis.
Compound concentrations were quantitated in plasma samples by LC/MS-MS using an Agilent triple quadrupole instrument. Chromatographic separation was conducted using an Agilent HPLC with Phenomenex Kinetex C18 column (2.6 μm particle size, 50-4.6 mm i.d.) equipped with a Phenomenex Security Guard column. The mobile phase (1.25 mL/min) consisted of 0.05% formic acid in water and 0.05% formic acid in acetonitrile mixed using a linear gradient over 7 minutes. […] Plasma samples and calibration standards were prepared by protein precipitation with acetonitrile (3 parts acetonitrile to 1 part plasma), followed by centrifugation and analysis of the supernatant. Sample concentrations were determined by comparison to calibration standards prepared in blank plasma and assayed using the same conditions. The analytical lower limit of quantitation in plasma was typically 0.75-1.00 nM and accuracy, precision and recovery were within acceptable limits.
The plasma was first warmed up on ice for about 1 hour. Then 50 μL of plasma sample was precipitated with 150 μL of cold acetonitrile with internal standard (133 nM) P4Q-95^20) following by centrifugation at 4,000 rpm for 5 min at 4° C. and transfer˜150 μL of the supernatant to LCMS vial. The samples were analyzed using Agilent triple quadruple instrument in triplicates (5 mice×3 injections for each time point). The chemical structure of P4Q-95^20 is shown below:
The calibration curve for 1d was linear in 1 to 500 nM range so samples were diluted if needed to fit this linearity and then concentration recalculated accordingly. Calibration curve was run each time following the actual PK measurements and used for that particular compound.

P. berghei-GFP parasites = test: in vivo efficacy, modified Thompson test; design: species or system mice
Description: Prodrug 6d was orally tested for in vivo efficacy at four doses (0.3 mg/kg, 1.0 mg/kg, 3.0 mg/kg, and 10 mg/kg) in 0.5% aqueous HEC solution.

[2] = aqueous stability and parent compound release by quantitative HPLC; conditions: parent 1d
Description: The stability of prodrugs in aqueous media and the release of parent compound was followed for 10 h using HPLC in triplicates.
Compound stability was assessed using quantitative HPLC in buffers at different pHs (2, 4, 7), in a simulated gastric fluid (SGF) and in a simulated intestinal fluid (SIF).

[3] = test system: multidrug resistant malarial strain W2 (pyrimethamine and chloroquine resistant); test: in vitro antimalarial activity against strain W2; type: cell-based; conditions: strains W2 and TM90-C2B, strain not specified
From the text: FIG. 2a depicts the synthesis of 4(1H)-quinolones 1 via Conrad-Limpach reaction^24 and conversion to first set of prodrugs (2, 3 and 4) via O-acylation.
FIG. 4a depicts the synthesis of 4(1H)-quinolones 1 into amino AOCOM ether prodrugs 6 via O-alkylation and subsequent deprotection.

[4] = aqueous solubility at pH 7.4; conditions: pH 7.4, aqueous buffer
[5] = 10 mg/kg PO, three daily doses days 3-5 PI, 0.5% aqueous HEC
[6] = 10 mg/kg PO, three daily doses days 3-5 PI, 0.5% aqueous HEC, untreated 13
[7] = 50 mg/kg PO, three daily doses days 3-5 PI, 0.5% aqueous HEC
[8] = oral dose 50.0 mg/kg, 0.5% aqueous HEC
[9] = Table 3 control: 10 mg/kg PO, three daily doses days 3-5 PI
[10] = single PO dose 0.01 mg/kg on day 3 PI
[11] = single PO dose 0.03 mg/kg on day 3 PI
[12] = single PO dose 0.1 mg/kg on day 3 PI
[13] = single PO dose 0.3 mg/kg on day 3 PI
[14] = single PO dose 3 mg/kg on day 3 PI
[15] = single PO dose 10 mg/kg on day 3 PI, 0.5% aqueous HEC

COc1cc2[nH]c(C)c(-c3ccc(C(F)(F)F)cc3)c(=O)c2cc1Cl [1d, 6-chloro-7-methoxy-2-methyl-3-(4-(trifluoromethyl)phenyl)-4(1H)-quinolone, reference compound]
AUC0→24 ([1]; mouse, in vivo, po, 50 mg/kg): 222 µmol·min/L | CL ([1]; mouse, in vivo, po, 50 mg/kg): 609.7 mL·kg/min | Cmax ([1]; mouse, in vivo, po, 50 mg/kg): 0.36 µmol/L | Vd ([1]; mouse, in vivo, po, 50 mg/kg): 377.7 L/kg | maximum plasma concentration of 1d ([1]; mouse, in vivo, po, 50 mg/kg): 0.365 µM | t1/2 apparent ([1]; mouse, in vivo, po, 50 mg/kg): 7.15 h | time of maximum plasma concentration ([1]; mouse, in vivo, po, 50 mg/kg): 2 h | tmax ([1]; mouse, in vivo, po, 50 mg/kg): 2 h | Suppression [%] day 6 PI (P. berghei-GFP parasites; [5]): 11% | Day of death (avg) (P. berghei-GFP parasites; [6]): 14 | Day of death (avg) (P. berghei-GFP parasites; [7]): 13 | Suppression [%] day 6 PI (P. berghei-GFP parasites; [7]): 10%

CNCCOC(=O)OCOc1c(-c2ccc(C(F)(F)F)cc2)c(C)nc2cc(OC)c(Cl)cc12.Cl [6c, 6-Chloro-7-methoxy-2-methyl-3-(4-(triftuoromethyl)phenyl)-4-(((2-(methylammonio)ethoxycarbonyl)oxy)methoxy)quinoline, chloride salt]
AUC0→24 [1, 8]: 8031 µmol·min/L | CL [1, 8]: 11.6 mL·kg/min | Vd [1, 8]: 7.8 L/kg | t1/2 apparent [1, 8]: 7.7 h | tmax [1, 8]: 4 h | Cmax ([1]; read-out: Cmax [μmol/L], oral dose 50.0 mg/kg, 0.5% aqueous HEC, parent in plasma): 12 µmol/L | AUC of 1d improved vs dosing of 1d ([1]; single oral 50 mg/kg): 36 fold | maximum plasma concentration of 1d ([1]; single oral 50 mg/kg of prodrug, 0.5% aqueous HEC): 12 µM | Suppression [%] day 6 PI (P. berghei-GFP parasites; [5]): 75% | Day of death (avg) (P. berghei-GFP parasites; [6]): 13 | Day of death (avg) (P. berghei-GFP parasites; [7]): 16 | Suppression [%] day 6 PI (P. berghei-GFP parasites; [7]): 96% | parent compound released ([2]; in 1 h at pH 7.0): > 90% | parent compound released ([2]; in 10 h at pH 4.0): > 25%

CCN(CC)C(=O)Oc1c(-c2ccccc2C)c(C)nc2cc(OC)c(Cl)cc12 [2a]
EC50 values fold higher than reference 4(1H)-quinolone 1c [3]: 300 fold | in vitro antimalarial activity / EC50 values relative to 1c [3]: lacked in antimalarial activity | solubility [4]: < 1 µM

CCN(CC)Cc1cc(Nc2ccnc3cc(Cl)ccc23)ccc1O [ADQ, reference compound]
Suppression [%] day 6 PI (P. berghei-GFP parasites; [5]): >99% | Day of death (avg) (P. berghei-GFP parasites; [6]): 21 | Day of death (avg) (P. berghei-GFP parasites; [9]): 21 | Suppression [%] day 6 PI (P. berghei-GFP parasites; [9]): >99%

CNCCOC(=O)OCOc1c(-c2ccccc2C)c(C)nc2cc(OC)c(Cl)cc12.Cl [6a, 6-Chloro-7-methoxy-2-methyl-3-(o-tolyl)-4-(((2-(methylammonio)ethoxycarbonyl)oxy)methoxy)quinoline, chloride salt]
Suppression [%] day 6 PI (P. berghei-GFP parasites; [5]): 71% | Day of death (avg) (P. berghei-GFP parasites; [6]): 16 | Day of death (avg) (P. berghei-GFP parasites; [7]): 13 | Suppression [%] day 6 PI (P. berghei-GFP parasites; [7]): 46%

CNCCCOC(=O)OCOc1c(-c2ccc(Oc3ccc(OC(F)(F)F)cc3)cc2F)c(C)nc2cc(OC)c(Cl)cc12.Cl [6e, 6-Chloro-7-methoxy-2-methyl-3-(2-fluoro-4-(4-(trifluoromethoxy)phenoxy)phenyl)-4-(((3-(methylammonio)propyloxycarbonyl)oxy)methoxy)quinoline, chloride salt]
clearance ([1]; mouse, in vivo, po): low clearance | half-life ([1]; mouse, in vivo, po): ≥ 10 h | improvement in AUC vs parent ([1]; mouse, in vivo, po): 21 fold | improvement of Cmax vs parent ([1]; mouse, in vivo, po): 18 fold | AUC0→24 ([1]; mouse, in vivo, po, 3 mg/kg): 4818 µmol·min/L | Vd ([1]; mouse, in vivo, po, 3 mg/kg): 0.8 L/kg | tmax ([1]; mouse, in vivo, po, 3 mg/kg): 2 h | AUC0→24 ([1]; mouse, in vivo, po, 10 mg/kg): 10269 µmol·min/L | CL ([1]; mouse, in vivo, po, 10 mg/kg): 1.4 mL·kg/min | Cmax ([1]; mouse, in vivo, po, 10 mg/kg): 9.1 µmol/L | Vd ([1]; mouse, in vivo, po, 10 mg/kg): 1.6 L/kg | t1/2 apparent ([1]; mouse, in vivo, po, 10 mg/kg): 13.1 h | tmax ([1]; mouse, in vivo, po, 10 mg/kg): 4 h | Day of death (avg) (P. berghei-GFP parasites; [10]): 13 | Suppression [%] day 6 PI (P. berghei-GFP parasites; [10]): <1% | Day of death (avg) (P. berghei-GFP parasites; [11]): 13 | Suppression [%] day 6 PI (P. berghei-GFP parasites; [11]): <1% | Day of death (avg) (P. berghei-GFP parasites; [12]): 13 | Suppression [%] day 6 PI (P. berghei-GFP parasites; [12]): < 1% | Day of death (avg) (P. berghei-GFP parasites; [13]): 13 | Suppression [%] day 6 PI (P. berghei-GFP parasites; [13]): 57% | average suppression of parasitemia on day 13 (P. berghei-GFP parasites; single PO dose 1 mg/kg): 90% | Suppression [%] day 6 PI (P. berghei-GFP parasites; single PO dose 1 mg/kg on day 3 PI): 97% | Day of death (avg) (P. berghei-GFP parasites; single PO dose 1 mg/kg on day 3 PI, 1 mg/kg): 21 | Day of death (avg) (P. berghei-GFP parasites; [14]): curative | Suppression [%] day 6 PI (P. berghei-GFP parasites; [14]): > 99% | Day of death (avg) (P. berghei-GFP parasites; [15]): curative | Suppression [%] day 6 PI (P. berghei-GFP parasites; [15]): > 99% | oral dose producing single dose cures (P. berghei-GFP parasites; single oral dose, no advanced formulation): 3 mg/kg
